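Five concentrations, 48 hours, 96-well plates. GI50 = concentration required for 50% inhibition of growth.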 Active and inactive are the calls of the source. Rule as the data show it: active = GI50 up to about 1.1 µM and inactive = higher.
What was measured:
Assay in all cases: NCI tumour cell line growth inhibition, 48 h
UO-31 = tested on: UO-31
OVCAR-3 = tested on: OVCAR-3
NCI/ADR-RES = tested on: NCI/ADR-RES
A549 = tested on: A549
MCF7 = tested on: MCF7
786-0 = tested on: 786-0
NCI-H226 = tested on: NCI-H226
SNB-19 = tested on: SNB-19
SF-268 = tested on: SF-268
TK-10 = tested on: TK-10
EKVX = tested on: EKVX
COLO 205 = tested on: COLO 205
SR = tested on: SR
HCC 2998 = tested on: HCC 2998
SN12C = tested on: SN12C
NCI-H522 = tested on: NCI-H522
MDA-MB-435 = tested on: MDA-MB-435
RPMI-8226 = tested on: RPMI-8226
IGROV-1 = tested on: IGROV-1
LOX IMVI = tested on: LOX IMVI

SMILES | GI50 (UO-31) | GI50 (OVCAR-3) | GI50 (NCI/ADR-RES) | GI50 (A549) | GI50 (MCF7) | GI50 (786-0) | GI50 (NCI-H226) | GI50 (SNB-19) | GI50 (SF-268) | GI50 (TK-10) | GI50 (EKVX) | GI50 (COLO 205) | GI50 (SR) | GI50 (HCC 2998) | GI50 (SN12C) | GI50 (NCI-H522) | GI50 (MDA-MB-435) | GI50 (RPMI-8226) | GI50 (IGROV-1) | GI50 (LOX IMVI)
CCOC(=O)C(NC(=O)c1ccco1)(Nc1nc2ccc(OCC)cc2s1)C(F)(F)F (stereo unspecified) | 4.22 µM (inactive) | 44.9 µM (inactive) | 25.8 µM (inactive) | 28.8 µM (inactive) | 25.4 µM (inactive) | 21.7 µM (inactive) | 35.1 µM (inactive) | 51.4 µM (inactive) | 41.2 µM (inactive) | 50.1 µM (inactive) | 32.8 µM (inactive) | 18.5 µM (inactive) | 19.3 µM (inactive) | 33.5 µM (inactive) | 37.9 µM (inactive) | 21.2 µM (inactive) | 24.4 µM (inactive) | – | – | –
C[C@]12OC[C@H](c3ccccc3)N1C(=O)C1[C@H]2CC12SCCS2 (stereo partly specified) | > 100 µM (inactive) | > 100 µM (inactive) | > 100 µM (inactive) | > 100 µM (inactive) | > 100 µM (inactive) | > 100 µM (inactive) | > 100 µM (inactive) | > 100 µM (inactive) | > 100 µM (inactive) | > 100 µM (inactive) | > 100 µM (inactive) | > 100 µM (inactive) | > 100 µM (inactive) | > 100 µM (inactive) | > 100 µM (inactive) | > 100 µM (inactive) | > 100 µM (inactive) | > 100 µM (inactive) | > 100 µM (inactive) | –
C/C(=N\NC(=S)NCCNC(=S)N/N=C(\C)c1ccccn1)c1ccccn1 | 1.43 µM (inactive) | 2.74 µM (inactive) | 1.92 µM (inactive) | 3.21 µM (inactive) | 4.39 µM (inactive) | 1.26 µM (inactive) | – | 9.46 µM (inactive) | 1.9 µM (inactive) | 1.04 µM (active) | 4.83 µM (inactive) | 2.09 µM (inactive) | 0.514 µM (active) | 7.28 µM (inactive) | 1.94 µM (inactive) | 6.04 µM (inactive) | 3.91 µM (inactive) | 1.7 µM (inactive) | 2.07 µM (inactive) | 1.89 µM (inactive)
C/C1=C\CC[C@@]2(C)O[C@@H]2C[C@@H]2[C@H](C/C(C)=C/CC1)OC(=O)C21CC1 | 92.3 µM (inactive) | > 100 µM (inactive) | > 100 µM (inactive) | > 100 µM (inactive) | 53.5 µM (inactive) | 74.5 µM (inactive) | – | > 100 µM (inactive) | > 100 µM (inactive) | > 100 µM (inactive) | > 100 µM (inactive) | > 100 µM (inactive) | 12.7 µM (inactive) | > 100 µM (inactive) | 60.3 µM (inactive) | – | 41.5 µM (inactive) | 12.1 µM (inactive) | 23.3 µM (inactive) | –
COC1/C=C/C(C)C(C(C)C(OC)C(C)CCC(=O)C(C)C(CC(=O)O)OC)OC(=O)/C=C/C=C(\C)CC(OC)CC2=CC(=O)O[C@H](C2)C(C)C(OC)CC(OC)/C=C/C(C)C(OC)C1 (stereo partly specified) | 0.458 µM (active) | 1.07 µM (active) | 2.66 µM (inactive) | 0.299 µM (active) | 0.439 µM (active) | 0.286 µM (active) | 0.543 µM (active) | 0.441 µM (active) | 0.0548 µM (active) | 0.433 µM (active) | 0.396 µM (active) | 0.0977 µM (active) | 0.385 µM (active) | 2.62 µM (inactive) | 2.96 µM (inactive) | 0.0259 µM (active) | 0.265 µM (active) | 0.219 µM (active) | 0.0783 µM (active) | –
O=C1/C(=C\Oc2ccc(F)cc2)N2CCC1CC2 | 45.1 µM (inactive) | > 100 µM (inactive) | 46.2 µM (inactive) | > 100 µM (inactive) | 49 µM (inactive) | > 100 µM (inactive) | 35.5 µM (inactive) | 56.6 µM (inactive) | 89.5 µM (inactive) | 55.3 µM (inactive) | 55.5 µM (inactive) | > 100 µM (inactive) | 16.4 µM (inactive) | – | 94.6 µM (inactive) | 50.8 µM (inactive) | 40.5 µM (inactive) | 52.1 µM (inactive) | 88.3 µM (inactive) | 25.7 µM (inactive)
C/C=C\C(CC(=O)NCC(=O)c1c[nH]c2ccccc12)CC(=O)OC (stereo unspecified) | > 100 µM (inactive) | > 100 µM (inactive) | > 100 µM (inactive) | > 100 µM (inactive) | > 100 µM (inactive) | > 100 µM (inactive) | – | > 100 µM (inactive) | > 100 µM (inactive) | > 100 µM (inactive) | > 100 µM (inactive) | > 100 µM (inactive) | > 100 µM (inactive) | > 100 µM (inactive) | – | > 100 µM (inactive) | > 100 µM (inactive) | > 100 µM (inactive) | > 100 µM (inactive) | –
CCO/C=N\c1c(C#N)c(-c2ccc(Cl)cc2)cn1-c1ccc(C)cc1 | > 100 µM (inactive) | > 100 µM (inactive) | > 100 µM (inactive) | > 100 µM (inactive) | > 100 µM (inactive) | > 100 µM (inactive) | > 100 µM (inactive) | > 100 µM (inactive) | > 100 µM (inactive) | > 100 µM (inactive) | > 100 µM (inactive) | > 100 µM (inactive) | 0.0272 µM (active) | > 100 µM (inactive) | > 100 µM (inactive) | > 100 µM (inactive) | > 100 µM (inactive) | – | > 100 µM (inactive) | > 100 µM (inactive)
C=CC(C)(C)C(=C)C(=O)Nc1ccccc1I | > 100 µM (inactive) | > 100 µM (inactive) | > 100 µM (inactive) | > 100 µM (inactive) | > 100 µM (inactive) | 2.29 µM (inactive) | > 100 µM (inactive) | > 100 µM (inactive) | > 100 µM (inactive) | – | 83.9 µM (inactive) | > 100 µM (inactive) | 86.1 µM (inactive) | > 100 µM (inactive) | > 100 µM (inactive) | – | > 100 µM (inactive) | 98.4 µM (inactive) | – | 73.6 µM (inactive)
Nc1nc(=O)n(C2CC(O)C(CO)O2)c2nc(-c3ccc(-c4ccccc4)cc3)cnc12 (stereo unspecified) | > 100 µM (inactive) | – | > 100 µM (inactive) | > 100 µM (inactive) | 15.5 µM (inactive) | 40.1 µM (inactive) | 25.6 µM (inactive) | 29 µM (inactive) | 30.7 µM (inactive) | > 100 µM (inactive) | 96.4 µM (inactive) | > 100 µM (inactive) | 27.7 µM (inactive) | 41.9 µM (inactive) | 62.7 µM (inactive) | 22.1 µM (inactive) | 97.7 µM (inactive) | > 100 µM (inactive) | > 100 µM (inactive) | 38.8 µM (inactive)
CN(C)C1C(CO)OC(n2cnc3c(N)ncnc32)C1O (stereo unspecified) | > 100 µM (inactive) | > 100 µM (inactive) | > 100 µM (inactive) | > 100 µM (inactive) | > 100 µM (inactive) | > 100 µM (inactive) | > 100 µM (inactive) | > 100 µM (inactive) | > 100 µM (inactive) | > 100 µM (inactive) | > 100 µM (inactive) | > 100 µM (inactive) | > 100 µM (inactive) | – | > 100 µM (inactive) | > 100 µM (inactive) | > 100 µM (inactive) | > 100 µM (inactive) | > 100 µM (inactive) | > 100 µM (inactive)
CC(=O)O[C@H]1C(=O)[C@@]2(C)[C@H]([C@H](OC(=O)c3ccccc3)[C@@]3(O)C[C@H](O)C(C)=C1C3(C)C)[C@]1(OC(C)=O)CO[C@@H]1C[C@@H]2O | 82 µM (inactive) | 22.2 µM (inactive) | > 100 µM (inactive) | 73.3 µM (inactive) | 30.4 µM (inactive) | 51.5 µM (inactive) | 86.5 µM (inactive) | 69.3 µM (inactive) | 83.4 µM (inactive) | 83.2 µM (inactive) | > 100 µM (inactive) | 26.5 µM (inactive) | 12.9 µM (inactive) | – | 49.4 µM (inactive) | 17 µM (inactive) | 11.9 µM (inactive) | 13.7 µM (inactive) | 19.5 µM (inactive) | 45.3 µM (inactive)
Cc1ccc(S(=O)(=O)NC(CCC(=O)NNc2ccccc2)C(=O)NNc2ccccc2)cc1 (stereo unspecified) | 6.1 µM (inactive) | 54.6 µM (inactive) | > 100 µM (inactive) | 15.6 µM (inactive) | 23.1 µM (inactive) | > 100 µM (inactive) | > 100 µM (inactive) | > 100 µM (inactive) | 46.8 µM (inactive) | 1.95 µM (inactive) | > 100 µM (inactive) | 13.4 µM (inactive) | 18.9 µM (inactive) | – | – | > 100 µM (inactive) | > 100 µM (inactive) | 5.58 µM (inactive) | 91 µM (inactive) | > 100 µM (inactive)
COc1ccc2c(c1)N(CCC1CCCCN1C)c1ccccc1S2 (stereo unspecified) [OXYRIDAZINE] | – | 15.6 µM (inactive) | 12 µM (inactive) | 14.1 µM (inactive) | 11.4 µM (inactive) | 13.1 µM (inactive) | 23.6 µM (inactive) | 15.2 µM (inactive) | 12.4 µM (inactive) | 14.5 µM (inactive) | 19.4 µM (inactive) | 12.3 µM (inactive) | 5.73 µM (inactive) | – | 13.4 µM (inactive) | 13.1 µM (inactive) | 7.62 µM (inactive) | 12.4 µM (inactive) | 12.5 µM (inactive) | 9.57 µM (inactive)

Reference: ChEMBL document CHEMBL1201862, “PubChem BioAssay data set” (2004)
